Structure (SMILES) | melting point
Cc1oc(-c2ccsc2)nc1CCl | 101 to 103 °C
O=c1c2c(-c3ccco3)csc2nc(S)n1-c1ccccc1 | 242 to 244 °C
Cc1nn(Cc2ccc(F)cc2)c(Cl)c1C=O | 49 to 51 °C
Cc1nnc(NCC2CC2)c2ccccc12 | 89 to 91 °C
Cc1ccc(S(=O)(=O)c2ccc(CBr)cc2)cc1 | 137 to 139 °C
CCC(NC(=O)OC(C)(C)C)(C(N)=O)C(C)C (stereo not given) | 157 to 159 °C
ClCc1sc2ccccc2c1Cl | 77 to 79 °C
CCOC(=O)c1ccc2c(c1)nc(S)n2CC | 152 to 154 °C
Fc1ccc(-c2cnc(S)o2)cc1 | 252 to 254 °C
CCOC(=O)C1SC(=N)NC1=O (stereo not given) | 175 to 177 °C
Cc1cc(NC(=O)C2CCCC2)sc1C(=O)O | 174 to 176 °C
O=S(=O)(c1ccc(S)nc1)N1CCCC1 | 179 to 181 °C
BrCc1cccc2ccccc12 | 49 to 51 °C
O=C(CCl)NC1CCOCC1 | 82 to 84 °C
CN(C)S(=O)(=O)c1ccc(Cl)c(N)c1 | 119 to 121 °C
COc1cccc(NC(=O)CNc2ccccc2)c1 | 205 to 207 °C
CCOC(=O)c1c(C)[nH]c(C(=O)O)c1C | 204 to 206 °C
COc1ccc(Cl)cc1C1(CN)CCOCC1 | 100 to 102 °C
CC(C)(C)c1cc(N)n(C(C)(C)C)n1 | 69 to 71 °C
CSc1ncc[nH]1 | 129 to 131 °C
Nc1ccc(OCC(F)(F)F)c(C(F)(F)F)c1 | 48 to 50 °C
COc1ccc(C(C)(C)O)c(OCc2ccccc2)c1 | 47 to 49 °C
CCOC(=O)c1cc(F)c(F)cc1N | 82 to 84 °C

Structure (SMILES) | melting point
O=C(O)c1csc(-c2cnn(-c3ccccc3)n2)n1 | 239 to 241 °C
Nc1ccc(Cl)c(S(=O)(=O)N2CCOCC2)c1 | 157 to 159 °C
CN1C(=O)c2ccc(C(=O)O)cc2C1=O | 173 to 175 °C
Cn1ccc(C(=O)O)c1 | 144 to 146 °C
CC(C)(C)OC(=O)NC(C#N)c1ccc(F)cc1 (stereo not given) | 85 to 87 °C
Cc1c(Br)cc(C(=O)O)cc1[N+](=O)[O-] | 183 to 185 °C
Cc1ccc(S(=O)(=O)CC(C)O)cc1 (stereo not given) | 76 to 78 °C
COc1cc(NC(=O)OC(C)(C)C)c(Cl)cc1C(=O)O | 155 to 157 °C
O=C(O)c1cc(S(=O)(=O)N2CCSCC2)c[nH]1 | 238 to 240 °C
N#Cc1ccc(Cl)cc1S(=O)(=O)Cl | 79 to 81 °C
CC(C)(N)CNC(=O)OC(C)(C)C | 68 to 70 °C
CNC(=O)NC(=O)CCCCl | 122 to 124 °C
O=C1CCCC(C(=O)O)N1 (stereo not given) | 94 to 96 °C
CC(C(=O)O)N1CCCCC1=O (stereo not given) | 134 to 136 °C
Cc1nc2ccccn2c1CN1CCNCC1 | 163 to 165 °C
COC(=O)c1ccc(CN2CCC(CO)CC2)cc1 | 54 to 56 °C
O=C(O)c1ccc(NS(=O)(=O)C=Cc2ccccc2)cc1 | 254 to 256 °C
Nc1ccc2c(ccn2CCN2CCOCC2)c1 | 102 to 104 °C
Cc1cc(Br)cc(C)c1C#N | 68 to 70 °C
Nc1nnn[nH]1 | 200 to 204 °C
O=S(=O)(c1cccc2cnccc12)N1CCCNCC1 | 146 to 148 °C
NC(=O)c1ccc(OC(F)F)cc1 | 130 to 132 °C
CSc1ccsc1C(=O)O | 194 to 196 °C

Structure (SMILES) | melting point
COc1cc(CC#N)cc(Br)c1OC(F)F | 200 to 203 °C
CS(=O)(=O)Nc1ccc(N)cc1Br | 146 to 148 °C
COc1ccc(S(=O)(=O)NC(C(=O)O)C(C)C)cc1 (stereo not given) | 172 to 174 °C
Cc1cc(Oc2ccccc2)c2cc([N+](=O)[O-])ccc2n1 | 167 to 169 °C
CN1C(=O)CCC(C(N)=O)C1c1ccccc1 (stereo not given) | 222 to 224 °C
CC1(c2ccc(OC(F)F)cc2)NC(=O)NC1=O (stereo not given) | 141 to 143 °C
Cn1ccc(S(=O)(=O)N2CCNCC2)c1 | 129 to 131 °C
CCn1c(N)nc2ccccc21 | 152 to 154 °C
CC(C)S(=O)(=O)Nc1ccc(S(N)(=O)=O)cc1F | 134 to 136 °C
Nc1ccc2nncn2c1 | 169 to 171 °C
O=C(c1ccc(S(=O)(=O)Cl)cc1)N1CCOCC1 | 110 to 112 °C
Cc1ccc(-n2cccc2)cc1 | 82 to 84 °C
COc1ccc2[nH]cc(C(=O)O)c2c1 | 179 to 181 °C
CC(C(=O)O)S(=O)(=O)Cc1ccc(Br)cc1 (stereo not given) | 135 to 137 °C
NS(=O)(=O)C1CCCNC1 (stereo not given) | 119 to 121 °C
O=[N+]([O-])c1ccc(Oc2ccccc2Br)c(Cl)c1 | 86 to 88 °C
O=C(O)c1cc(N2CCNC2=O)c(F)cc1F | 246 to 248 °C
O=Cc1cnn(Cc2ccccc2Cl)c1 | 54 to 56 °C
Cc1cccc(NC(=O)N2CCCC(C(=O)O)C2)c1 (stereo not given) | 139 to 141 °C
Cc1ccc(-n2c(C)cc(CC(=O)O)c2C)cc1 | 50 to 52 °C
NC(=O)CC(F)(F)F | 101 to 103 °C
Sc1nnnn1-c1ccc(Cl)cc1 | 162 to 164 °C
CCN1C(=O)NC(C)C1=O (stereo not given) | 51 to 53 °C

Structure (SMILES) | melting point
N#Cc1ccc(CBr)c(OC(F)F)c1 | 80 to 82 °C
O=C(O)c1ccc(Oc2ccc(F)cc2F)cc1 | 172 to 174 °C
CC(C(=O)O)n1nnnc1C(C)(C)C (stereo not given) | 171 to 173 °C
Cn1cnnc1Sc1ccc(Br)cc1N | 144 to 146 °C
O=C(O)C1CCCCN1C(=O)c1ccccc1 (stereo not given) | 128 to 130 °C
Nc1ccc(Sc2ccc(Cl)cc2)cc1 | 60 to 62 °C
CN(C)S(=O)(=O)c1cccc(C#N)c1 | 128 to 130 °C
ON=Cc1ccc(N2CCOCC2)cc1 | 186 to 188 °C
Cc1c(C(=O)O)cnn1CCC#N | 159 to 161 °C
CC1=CC(C)=NS(=O)(=O)N1 | 119 to 121 °C
Cc1cnc(=S)[nH]c1 | 239 to 241 °C
NC(=O)C1CNCCN1 (stereo not given) | 142 to 144 °C
COc1cc(C=O)cc(Cl)c1OC | 56 to 58 °C
CC(O)c1nc2cc(C(F)(F)F)ccc2n1C (stereo not given) | 99 to 101 °C
CC(C)Cn1c(N)c(C=O)c(=O)n(C)c1=O | 192 to 194 °C
Nc1cccc(-c2cn(Cc3ccccc3)nn2)c1 | 139 to 141 °C
CCCS(=O)(=O)Nc1cccc(N)c1C | 99 to 101 °C
O=[N+]([O-])c1ccc(S(=O)(=O)Cl)c(F)c1 | 72 to 74 °C
O=C1CC2(CCCCC2)CN1 | 89 to 91 °C
CC(C)(C)OC(=O)N1CCc2ccccc21 | 46 to 50 °C

Further lines, results first:

melting point | Structure (SMILES)
121 to 123 °C | O=S(=O)(Cl)c1cccc2ncccc12
87 to 89 °C | Nc1cccc(Cl)c1Sc1ccccn1
279 to 281 °C | O=C(O)c1[nH]c2ccc(F)cc2c1Cl
53 to 55 °C | O=C(c1cccc([N+](=O)[O-])c1)C(F)(F)F
131 to 133 °C | NC(=O)CCc1ccc(N)cc1
245 to 247 °C | CC(CC(=O)O)NC1=NS(=O)(=O)c2ccccc21 (stereo not given)
105 to 107 °C | COCC(=O)c1cccc([N+](=O)[O-])c1
93 to 95 °C | CC1CN(Cc2ccccc2N)CC(C)O1 (stereo not given)
75 to 77 °C | C=CCNC(=O)c1cccnc1Cl
100 to 102 °C | CC(C)(C)c1noc(-c2ccccc2C(=O)O)n1
219 to 221 °C | NNC(=O)c1cc(-c2ccco2)nc2ccccc12
29 to 31 °C | CCOC(=O)Cc1ccc(F)cc1
99 to 101 °C | O=C(O)C=Cc1ccccc1OCC1CCCCC1
133 to 135 °C | O=C(O)c1ccc(S(=O)(=O)Cl)cc1Cl
208 to 210 °C | c1cc(-c2ncc[nH]2)ccn1
54 to 56 °C | CN(Cc1c(F)cccc1Cl)C(=O)CCl
129 to 131 °C | COC(=O)c1cccc(-c2nc(CCl)cs2)c1
174 to 176 °C | O=C(O)C=Cc1ccccc1OC(F)(F)F
213 to 215 °C | O=C1OCCc2cnc3ccnn3c21

melting point | Structure (SMILES)
89 to 91 °C | Nc1cc(Cl)cc2[nH]cnc12
102 to 104 °C | Cc1cc(C(=O)CCl)c(C)n1-c1cccc(Br)c1
199 to 201 °C | NCc1ccc(C(=O)NCC(N)=O)cc1
188 to 190 °C | O=C(O)C=Cc1cccc2cccnc12
179 to 181 °C | O=C(CC1CCCCC1)Nc1cccc2c1NCCC2
165 to 167 °C | CN(CC(=O)O)c1nc2ccccc2s1
167 to 169 °C | CN(C(=O)c1ccc(Br)o1)c1ccccc1C(=O)O
143 to 145 °C | CNC(=O)CN1CCc2ccc(N)cc21
98 to 100 °C | Clc1ncc(Br)c2ccccc12
93 to 95 °C | COC(=O)C(=O)CC(=O)c1ccncc1
237 to 239 °C | O=C(O)c1cnc(-c2ccco2)s1
43 to 45 °C | COCc1cc([N+](=O)[O-])ccc1Cl
99 to 100 °C | OCCOc1ccccc1O
134 to 136 °C | O=C(O)c1ccc(COc2ccccc2)s1
159 to 161 °C | CCOc1cc(C(=O)O)ccc1OC(F)F
92 to 96 °C | CCNC(=S)n1ncc(C(=O)OCC)c1N
92 to 94 °C | N#CCc1cc(Cl)ccc1Cl
99 to 101 °C | CCOC(=O)c1nn(-c2ccccc2)cc1C=O
147 to 149 °C | O=C(O)c1cccc(OCc2cccs2)c1

melting point | Structure (SMILES)
182 to 184 °C | CCCC(=O)Nc1nc2ccc(N)cc2s1
208 to 210 °C | O=Cc1c[nH]nc1-c1cccnc1
169 to 171 °C | O=C(O)c1ncoc1-c1cccc(F)c1
197 to 199 °C | O=Cc1cnc2ncccn12
293 to 295 °C | Cc1[nH]c2ccnn2c(=O)c1CC(=O)O
199 to 201 °C | NC(=O)NC(CC(=O)O)c1ccc(Br)cc1 (stereo not given)
136 to 138 °C | O=C(Nc1ccccc1O)C1CC1
104 to 106 °C | O=C(CO)Nc1ccc(C(F)(F)F)cc1
229 to 231 °C | CCc1[nH]ncc1C(=O)O
110 to 112 °C | Nc1ccc(Sc2ccccn2)c(Cl)c1
157 to 160 °C | COc1cccc(C(=O)O)c1F
166 to 168 °C | CCc1ccc2c(c1)C(=O)C(=O)N2CC(=O)O
86 to 88 °C | OCc1cncc2ccccc12
87 to 89 °C | Clc1ccc(NCc2ccccn2)cc1
79 to 81 °C | CCOC(=O)Nc1ccc(Br)cc1
113 to 115 °C | O=C1C=CC(=O)N1c1cccc(O)c1
283 to 285 °C | O=C(O)c1ccccc1Cc1nc2ccccc2c(=O)[nH]1
140 to 150 °C | O=C(O)C1=C(Nc2ccccc2)OCC1=O
